pIC50: −log10 of the molar value. A value given as a limit tells only on which side of the number the result lay.

The test system of assay [1] is MCF7. Put plainly: Cytotoxicity against Homo sapiens (human) MCF7 cells after 48 hr by MTT assay. It counts as cell-based. To be noted: MCF7, 48 h.
The subject of assay [2] is Entamoeba histolytica. Put plainly: Antiamoebic activity against trophozoites of Entamoeba histolytica HM-1:IMSS after 72 hr by eosin stain-based spectrophotometric analysis. It counts as functional, organism-based.

Usually pIC50 stands for the negative decadic logarithm of the IC50, by convention in mol/L. Turning to `Cc1ncc([N+](=O)[O-])n1CCO` [METRONIDAZOLE], the negative-log IC50 (pIC50) in assay [1] was less than 3.60. For `Nc1nnc(-c2ccccc2)s1`, in assay [2], the negative logarithm of the IC50 (pIC50) was 5.26.
